Assay results published in patent US6156700A, “3-(1,2-Benzisothiazol- and isoxazol-5-yl)-2,4(1H,3H)-pyrimidinedione or thione and 3-(1,2-benzisothiazol- and isoxazol-5-yl)-4(3H)-pyrimidinone or thione herbicidal agents” (American Cyanmid Company, priority 1998, dated 2000).

Tests used:
ZEAMX [1] = test: Postemergence herbicidal evaluation; format: in vivo
TRZAWR = test: Preemergence herbicidal evaluation; format: in vivo; set-up: scale not given here
IPOSS [2] = test: Preemergence herbicidal evaluation; format: in vivo; set-up: scale not given here
AMBEL [3] = test: Preemergence herbicidal evaluation; format: in vivo; set-up: scale not given here
ECHCG = test: Preemergence herbicidal evaluation; format: in vivo; set-up: scale not given here
CHEAL = test: Preemergence herbicidal evaluation; format: in vivo; set-up: scale not given here
CASOB [4] = test: Preemergence herbicidal evaluation; format: in vivo; set-up: scale not given here
GALAP [5] = test: Preemergence herbicidal evaluation; format: in vivo; set-up: scale not given here
ZEAMX [6] = test: Preemergence herbicidal evaluation; format: in vivo; set-up: scale not given here
SETVI [7] = test: Preemergence herbicidal evaluation; format: in vivo; set-up: scale not given here
SETVI [8] = test: Postemergence herbicidal evaluation; format: in vivo
IPOSS [9] = test: Postemergence herbicidal evaluation; format: in vivo
AMBEL [10] = test: Postemergence herbicidal evaluation; format: in vivo
GALAP [11] = test: Postemergence herbicidal evaluation; format: in vivo
CASOB [12] = test: Postemergence herbicidal evaluation; format: in vivo
ORYSAT = test: Postemergence herbicidal evaluation; format: in vivo, Oryza sativa

Cn1c(C(F)(F)F)cc(=O)n(-c2ccc3snc(-c4ccccc4)c3c2)c1=O [Compound 4, 1-Methyl-3-(3-phenyl-1,2-benzisothiazol-5-yl)-6-(trifluoromethyl)-2,4(1H,3H)-pyrimidinedione]
herbicidal effect rating (ZEAMX [1]; 0.0157-0.0160 kg/ha): 2.0 | herbicidal effect rating (ZEAMX [1]; 0.0313-0.0320 kg/ha): 2.0 | herbicidal effect rating (ZEAMX [1]; 0.0625-0.0640 kg/ha): 3.0 | herbicidal effect rating (ZEAMX [1]; 0.1250 kg/ha): 3.0 | herbicidal effect rating (ZEAMX [1]; 0.2500 kg/ha): 3.0 | herbicidal effect rating (ZEAMX [1]; 0.5000 kg/ha): 3.0 | herbicidal effect rating (TRZAWR; 0.0313-0.0320 kg/ha): 2.0 | herbicidal effect rating (TRZAWR; 0.0620-0.0630 kg/ha): 5.0 | herbicidal effect rating (TRZAWR; 0.1250 kg/ha): 7.0 | herbicidal effect rating (TRZAWR; 0.2500 kg/ha): 7.0 | herbicidal effect rating (TRZAWR; 0.5000 kg/ha): 7.0 | herbicidal effect rating (IPOSS [2]; 0.0313-0.0320 kg/ha): 2.0 | herbicidal effect rating (IPOSS [2]; 0.0620-0.0630 kg/ha): 4.0 | herbicidal effect rating (IPOSS [2]; 0.1250 kg/ha): 7.0 | herbicidal effect rating (IPOSS [2]; 0.2500 kg/ha): 9.0 | herbicidal effect rating (IPOSS [2]; 0.5000 kg/ha): 9.0 | herbicidal effect rating (AMBEL [3]; 0.0313-0.0320 kg/ha): 7.0 | herbicidal effect rating (AMBEL [3]; 0.0620-0.0630 kg/ha): 7.0 | herbicidal effect rating (AMBEL [3]; 0.1250 kg/ha): 9.0 | herbicidal effect rating (AMBEL [3]; 0.2500 kg/ha): 9.0 | herbicidal effect rating (AMBEL [3]; 0.5000 kg/ha): 9.0 | herbicidal effect rating (ECHCG; 0.0313-0.0320 kg/ha): 9.0 | herbicidal effect rating (ECHCG; 0.0620-0.0630 kg/ha): 9.0 | herbicidal effect rating (ECHCG; 0.1250 kg/ha): 9.0 | herbicidal effect rating (ECHCG; 0.2500 kg/ha): 9.0 | herbicidal effect rating (ECHCG; 0.5000 kg/ha): 9.0 | herbicidal effect rating (CHEAL; 0.0313-0.0320 kg/ha): 9.0 | herbicidal effect rating (CHEAL; 0.0620-0.0630 kg/ha): 9.0 | herbicidal effect rating (CHEAL; 0.1250 kg/ha): 9.0 | herbicidal effect rating (CHEAL; 0.2500 kg/ha): 9.0 | herbicidal effect rating (CHEAL; 0.5000 kg/ha): 9.0 | herbicidal effect rating (CASOB [4]; 0.0313-0.0320 kg/ha): 7.0 | herbicidal effect rating (CASOB [4]; 0.0620-0.0630 kg/ha): 7.0 | herbicidal effect rating (CASOB [4]; 0.1250 kg/ha): 6.0 | herbicidal effect rating (CASOB [4]; 0.2500 kg/ha): 9.0 | herbicidal effect rating (CASOB [4]; 0.5000 kg/ha): 9.0 | herbicidal effect rating (GALAP [5]; 0.0313-0.0320 kg/ha): 9.0 | herbicidal effect rating (GALAP [5]; 0.0620-0.0630 kg/ha): 9.0 | herbicidal effect rating (GALAP [5]; 0.1250 kg/ha): 6.0 | herbicidal effect rating (GALAP [5]; 0.2500 kg/ha): 9.0 | herbicidal effect rating (GALAP [5]; 0.5000 kg/ha): 9.0 | herbicidal effect rating (ZEAMX [6]; 0.0313-0.0320 kg/ha): 3.0 | herbicidal effect rating (ZEAMX [6]; 0.0620-0.0630 kg/ha): 7.0 | herbicidal effect rating (ZEAMX [6]; 0.1250 kg/ha): 7.0 | herbicidal effect rating (ZEAMX [6]; 0.2500 kg/ha): 7.0 | herbicidal effect rating (ZEAMX [6]; 0.5000 kg/ha): 7.0 | herbicidal effect rating (SETVI [7]; 0.0313-0.0320 kg/ha): 9.0 | herbicidal effect rating (SETVI [7]; 0.0620-0.0630 kg/ha): 9.0 | herbicidal effect rating (SETVI [7]; 0.1250 kg/ha): 9.0 | herbicidal effect rating (SETVI [7]; 0.2500 kg/ha): 9.0 | herbicidal effect rating (SETVI [7]; 0.5000 kg/ha): 9.0 | herbicidal effect rating (SETVI [8]; 0.0157-0.0160 kg/ha): 8.0 | herbicidal effect rating (SETVI [8]; 0.0313-0.0320 kg/ha): 9.0 | herbicidal effect rating (SETVI [8]; 0.0625-0.0640 kg/ha): 9.0 | herbicidal effect rating (SETVI [8]; 0.1250 kg/ha): 9.0 | herbicidal effect rating (SETVI [8]; 0.2500 kg/ha): 9.0 | herbicidal effect rating (SETVI [8]; 0.5000 kg/ha): 9.0 | herbicidal effect rating (IPOSS [9]; 0.0313-0.0320 kg/ha): 7.0 | herbicidal effect rating (IPOSS [9]; 0.0625-0.0640 kg/ha): 9.0 | herbicidal effect rating (IPOSS [9]; 0.1250 kg/ha): 9.0 | herbicidal effect rating (IPOSS [9]; 0.2500 kg/ha): 9.0 | herbicidal effect rating (IPOSS [9]; 0.5000 kg/ha): 9.0 | herbicidal effect rating (AMBEL [10]; 0.0157-0.0160 kg/ha): 9.0 | herbicidal effect rating (AMBEL [10]; 0.0313-0.0320 kg/ha): 7.0 | herbicidal effect rating (AMBEL [10]; 0.0625-0.0640 kg/ha): 9.0 | herbicidal effect rating (AMBEL [10]; 0.1250 kg/ha): 9.0 | herbicidal effect rating (AMBEL [10]; 0.2500 kg/ha): 9.0 | herbicidal effect rating (AMBEL [10]; 0.5000 kg/ha): 9.0 | herbicidal effect rating (GALAP [11]; 0.0157-0.0160 kg/ha): 4.0 | herbicidal effect rating (GALAP [11]; 0.0313-0.0320 kg/ha): 9.0 | herbicidal effect rating (GALAP [11]; 0.0625-0.0640 kg/ha): 9.0 | herbicidal effect rating (GALAP [11]; 0.1250 kg/ha): 9.0 | herbicidal effect rating (GALAP [11]; 0.2500 kg/ha): 9.0 | herbicidal effect rating (GALAP [11]; 0.5000 kg/ha): 9.0 | herbicidal effect rating (CASOB [12]; 0.0157-0.0160 kg/ha): 7.0 | herbicidal effect rating (CASOB [12]; 0.0313-0.0320 kg/ha): 7.0 | herbicidal effect rating (CASOB [12]; 0.0625-0.0640 kg/ha): 9.0 | herbicidal effect rating (CASOB [12]; 0.1250 kg/ha): 9.0 | herbicidal effect rating (CASOB [12]; 0.2500 kg/ha): 9.0 | herbicidal effect rating (CASOB [12]; 0.5000 kg/ha): 9.0 | herbicidal effect rating (ORYSAT; 0.0157-0.0160 kg/ha): 2.0 | herbicidal effect rating (ORYSAT; 0.0313-0.0320 kg/ha): 2.0 | herbicidal effect rating (ORYSAT; 0.0625-0.0640 kg/ha): 2.0 | herbicidal effect rating (ORYSAT; 0.1250 kg/ha): 3.0 | herbicidal effect rating (ORYSAT; 0.2500 kg/ha): 3.0 | herbicidal effect rating (ORYSAT; 0.5000 kg/ha): 4.0
